In patent publication US9012403B2, “Peptides as active agents to stabilize biological barriers” (XiberScience GmbH, priority 2010, dated 2015):
Marks after values point to notes of the source that are not given here.

Key:
LPS induced lung injury = experiment: LPS induced lung injury, bronchoalveolar lavage; type: in vivo; conditions: mice, 6 h after LPS, n = 20
Experimental: Male C57Bl/6 Mice (Charles River, Germany) were kept at the animal facility of the Medical University of Vienna, feed with standard diet and water was provided ad libitum. All interventions were performed according to the guide lines of AAALAC (Association for Assessment and Accreditation of Laboratory Animal Care). All experiment were approved by the Ethic committee of the Medical University of Vienna. Mice were anesthetized with isoflouran and treated with 100 ng of LPS (E. coli O55:B5, Sigma Aldrich) intranasally. XIB1-a or XIB1-b was applied either intra-peritoneally (2×2 mg/kg) or via inhalation (2×4 mg/kg), first application was performed concomitantly with LPS administration, the second application was performed 1 h after the LPS inhalation.
The trachea was exposed through a midline incision and canulated with a sterile 20-gauge catheter (BD Venflon™, Becton Dickinson Infusion Therapy, Helsingborg, Sweden). Bilateral broncho-alveolar lavage fluid (BALF) was gained by instilling two 0.5 ml aliquots of sterile saline. Approximately 0.9-1 ml BALF was retrieved per mouse. Total cell numbers were counted from each sample using a hemo-cytometer (Türck chamber), BALF differential cell counts were done on cytospin preparations stained with Giemsa. For protein measurements, BALF was diluted 1:2 in buffer containing 300 mM NaCl, 30 mM Tris, 2 mM MgCl2, 2 mM CaCl2, and Pepstatin A, Leupeptin and Aprotinin (all 20 ng/ml; pH 7.4). Protein levels in BALF were measured using the BCA protein kit according to the manufacturer's instructions (Pierce, Rockford, Ill.).
In addition, the same set-up as described above was used for comparing the impact of XIB1-b compared to Bβ15-42 (PLoS ONE (2009), 4(4): e5391), a peptide derived from fibrin having the sequence […] (SEQ ID NO: 41). Bβ15-42 was added in the same manner as XIB1-b. Again, protein content and cell count of BALF was measured.

[1] = tested on: Ventilator-Induced Lung Injury (VILI); experiment: Ventilator-induced lung injury (VILI) after LPS pre-challenge; type: in vivo; conditions: mice, LPS + high tidal volume ventilation (LPS-HTV); i.v. 4 mg/kg loading, then 1 mg/kg/h
Experimental: Experiments were performed with healthy C57BL/6 (aged 8-10 weeks, with weights ranging from 19-25 g). All interventions were performed according to the guide lines of AAALAC. All experiment were approved by the Ethic committee of the University of Amsterdam.
Mice were challenged with LPS (dosage: 50 μg per mouse) (or saline), via intranasal injection 2 h before initiation of mechanical ventilation, to induce lung injury.
XIB1-1b (or random peptide) was administered i.v. 10 min before start of mechanical ventilation (dosage: 4 mg/kg loading dose, followed administration i.v. injections 1 mg/kg/h.
A Y-tube connector with 1.0 mm outer diameter and 0.6 mm inner diameter was surgically inserted into the trachea under general anesthesia. Mice were placed in a supine position and connected to a ventilator. Mice were pressure-controlled ventilated with either an inspiratory pressure of 10 cm H2O (resulting in VT˜7.5 mL/kg; low VT, LVT) or an inspiratory pressure of 18 cm H2O (resulting in VT˜15 mL/kg; high VT, HVT). Positive end-expiratory pressure (PEEP) is set at 2 cm H2O with both MV-strategies. The fraction of inspired oxygen was kept at 0.5 throughout the experiment. The inspiration to expiration ratio was kept at 1:1 throughout the experiment.
BALF was obtained by instilling 3 times 0.5 mL aliquots of saline by a 22-gauge Abbocath-T catheter (Abbott, Sligo, Ireland) into the trachea. Approximately, 1.0 mL of BALF was retrieved per mouse and cell counts were determined using a hemacytometer (Beckman Coulter, Fullerton, Calif.). Subsequently, differential counts were done on cytospin preparations stained with a modified Giemsa stain, Diff-Quick (Dade Behring AG, Düdingen, Switzerland). Supernatant was stored at −80° C.
Total protein levels in BALF are determined using a Bradford Protein Assay Kit (OZ Biosciences, Marseille, France) according to manufacturers' instructions with bovine serum albumin as standard. Mouse IgM was determined by ELISA by using anti-Mouse IgM sensitized 96-strip micro-well plates according to manufacturers' instructions (IMMUNO-TEK kit from ZeptoMetrix).

GTP-bound RhoA [2] = experiment: GTP-associated active RhoA in HpMec membrane fraction (western blot); type: cell-based; conditions: for increase in RhoA-activity: HepMec cells, thrombin; for GTP-bound RhoA, relative values compared to unstimulated control (Mean): HpMec, Thrombin 1 U/ml, with or without peptide 50 μg/ml
Experimental: (§1) To measure the GTP-associated active RhoA, the following cell lines were used: Caco-2, ECV304 and HpMec. All cells were grown at standard conditions (37° C., 5% CO2 and 95% rH). 4 h before the experiment, cells were starved by serum withdrawal. To induce GEF-activity, cells were stimulated with thrombin, LPS or PMA for the indicated time in presence or absence of 50 μg/ml XIB1-a or XIB1-b. After stimulation, membrane fractions were prepared by using the commercial available “Compartemental Protein Extraction Kit” from Biochain Institutes. Membrane fractions were prepared according to the manufacturer instructions. The membrane fraction was separated on 15% polyacrylamide gel according to standard procedures of gel electrophoresis. The gels were afterwards blotted on a nitrocellulose membrane according to standard procedures of western blotting. GTP-bound RhoA was detected using RhoA-GTP monoclonal antibody from NewEast Inc. in a dilution of 1:5000. Protein bands were analyzed with the Dolphin-1D Gel analysis system (Wealtec).

GEF [3] = experiment: GEF-activity in membrane fractions of ECV304 cells (RhoGEF Exchange Assay); type: cell-based; conditions: ECV 304, Thrombin 1 U/ml, with or without peptide 50 μg/ml
Experimental: (§2) To measure the GEF-inhibitory effect, the following cell lines were used: Caco-2 (epithelial cells from adeno-carcinoma), ECV304 (epithelial cells from bladder carcinoma) and HpMec (endothelial cells, immortalized pulmonary micro-vascular cells). All cells were grown at standard conditions (37° C., 5% CO2 and 95% relative humidity (rH)). Culture Medium used for Caco-2: DMEM+1 mM sodium pyruvate+20% FCS+1% Penicillin Streptomycin; for ECV 304: RPMI 1640+10% FCS+1% Penicillin Streptomycin; and for HpMec: IMDM+25 mM Hepes+10% Human Serum+1% Penicillin Streptomycin+1% L-Glutamine+ECGS/Heparin 2 ml. 4 h before the experiment, cells were starved by serum withdrawal. To induce GEF-activity, cells were stimulated with thrombin, lipopolysaccharide (LPS) or PMA for the indicated time in presence or absence of 50 μg/ml XIB1-a or XIB1-b. After stimulation, membrane fractions were prepared by using the commercial available “Compartemental Protein Extraction Kit” from Biochain institutes. Membrane fractions were prepared according to the manufacturer instructions. GEF-activity in membrane lysates was determined by using “RhoGEF Exchange Assay Biochem Kit” from Cytoskeleton Inc. according to manufacturer instructions. GEF-activity was measured as fluorescence at using the Fluoroskan Ascent FL 2.6 from Thermo Electron Corporation. The excitation Filter wavelength was set at 355 nm and the emission filter wavelength at 460 nm.

GEF [4] = experiment: GEF-activity in membrane fractions of HpMec cells (RhoGEF Exchange Assay); type: cell-based; conditions: for increase in GEF-activity: HepMec cells, thrombin; for GEF-activity, relative values compared to unstimulated control (Mean): HpMec, Thrombin 1 U/ml, with or without peptide 50 μg/ml
Experimental: as §2

[5] = tested on: Phosphorylated Myosin Light Chain (MLC) and actin stress fibers; experiment: MLC phosphorylation and actin stress fiber formation in ECV304 cells (microscopy score); type: cell-based; conditions: ECV 304, Thrombin 1 U/ml, with or without peptide 50 μg/ml
Experimental: (§3) To measure MLC phosphorylation and actin stress fiber formation, the following cell lines were used: Caco-2, ECV304 and HpMec. All cells were grown at standard conditions (37° C., 5% CO2 and 95% rH). Culture Medium used: for Caco-2: DMEM+1 mM sodium pyruvate+20% FCS+1% Penicillin Streptomycin; for ECV 304: RPMI 1640+10% FCS+1% Penicillin Streptomycin; and for HpMec: IMDM+25 mM Hepes+10% Human Serum+1% Penicillin Streptomycin+1% L-Glutamine+ECGS/Heparin 2 ml. 4 h before the experiment, cells were starved by serum withdrawal. To induce GEF-activity, cells were stimulated with thrombin, LPS or PMA for the indicated time in presence or absence of 50 μg/ml XIB1-a or XIB1-b. After stimulation, cells were fixed using 4% PFA. Phospho MLC was detected by using the “rabbit anti phosphor-myosin light chain antibody” from Chemicon in a concentration of 3 μl/ml in PBS (Gibco) supplemented with 0.1% Triton X-100. As detection antibody, the Alexa 448 tagged “anti Rabbit IgG Antibody” from Invitrogen was used in a concentration of 0.5 μl/ml in PBS (Gibco) supplemented with 0.1% Triton X-100. Aktin was detected using TRITC-labeled Phalloidin in a concentration of 0.5 μl/ml in PBS (Gibco) supplemented with 0.1% Triton. Stained cells were analyzed by using a Zeiss Laser Scan microscope. Evaluation of the cyto-skeletal activation was performed by 2 independent observers that were blinded to the conditions. Evaluation criteria were set as follows:
(§4) Actin: parallel actin bundles absent=0; distinct bundle formation=1; prominent parallel bundles=2; Phospho-MLC: present at cell poles=0; slight co-localization with actin bundles=1; prominent co-localization with actin bundles=2

[6] = tested on: Phosphorylated Myosin Light Chain (MLC) and actin stress fibers; experiment: MLC phosphorylation and actin stress fiber formation in HpMec cells (microscopy score); type: cell-based; conditions: Thrombin 1 U/ml, with or without peptide 50 μg/ml
Experimental: as §3, §4

GTP-bound RhoA [7] = experiment: GTP-associated active RhoA in ECV304 membrane fraction (western blot); type: cell-based; conditions: ECV 304, Thrombin 1 U/ml, with or without peptide 50 μg/ml
Experimental: as §1

GEF [8] = experiment: GEF-activity in membrane fractions of Caco-2 cells (RhoGEF Exchange Assay); type: cell-based; conditions: for GEF-activity, relative values compared to unstimulated control (Mean): CaCo-2, PMA 1 μg/ml, with or without peptide 50 μg/ml
Experimental: as §2

[9] = tested on: Phosphorylated Myosin Light Chain (MLC) and actin stress fibers; experiment: MLC phosphorylation and actin stress fiber formation in Caco-2 cells (microscopy score); type: cell-based; conditions: CaCo-2, PMA 1 μg/ml, with or without peptide 50 μg/ml
Experimental: as §3, §4

GTP-bound RhoA [10] = experiment: GTP-associated active RhoA in Caco-2 membrane fraction (western blot); type: cell-based; conditions: for GTP-bound RhoA, relative values compared to unstimulated control (Mean): CaCo-2, PMA 1 μg/ml, with or without peptide 50 μg/ml; for increase of RhoA-activity: CaCo-2 cells, PMA-stimulus
Experimental: as §1

GHRPLDKKKREEAPSLRPAPPPISGGGYR (/note=“Description of artificial sequence peptide Bbeta 15-42”) [Bβ15-42, a peptide derived from fibrin]
albumine content of BALFs (mean +/ SD) (LPS induced lung injury; comparison with Bβ15-42 (Table 6), intraperitoneal application): 160 ± 20 µg/mL
counts of neutrophils in the BALF (mean +/ SD) (LPS induced lung injury; comparison with Bβ15-42 (Table 6), intratracheal plus intraperitoneal application): 35 +/− 10 neutrophils/ml (× 10^3)
albumine content of BALFs (mean +/ SD) (LPS induced lung injury; comparison with Bβ15-42 (Table 6, last section), intraperitoneal application as printed): 152 ± 35 µg/mL

GGGGGSRRIPL (/note=“Description of artificial sequence variable insert”) [scrambled peptide, scrambled peptide control in the VILI experiment, reference compound]
IgM content in the BALF [1]: No improvement
neutrophil count in the BALF [1]: No improvement
total cell count in the BALF [1]: No improvement
total protein content in the BALF [1]: No improvement

Thrombin [reference compound]
increase in RhoA-activity (GTP-bound RhoA [2]; after 1 min): 3.8 fold
increase in RhoA-activity (GTP-bound RhoA [2]; after 5 min): 3.2 fold
GTP-bound RhoA, relative values compared to unstimulated control (Mean) (GTP-bound RhoA [2]; 1 min): 3.8
GTP-bound RhoA, relative values compared to unstimulated control (Mean) (GTP-bound RhoA [2]; 5 min): 3.2
GEF-activity, relative values compared to unstimulated control (Mean) (GEF [3]; 1 min): 5
GEF-activity, relative values compared to unstimulated control (Mean) (GEF [3]; 5 min): 3.4
increase in GEF-activity (GEF [4]; after 1 min): 3.5 fold
increase in GEF-activity (GEF [4]; after 5 min): 3 fold
GEF-activity, relative values compared to unstimulated control (Mean) (GEF [4]; 1 min): 3.5
GEF-activity, relative values compared to unstimulated control (Mean) (GEF [4]; 5 min): 3
MLC phosphorylation and actin stress fiber formation, evaluation score (Mean) ([5]; 1 min): 4
MLC phosphorylation and actin stress fiber formation, evaluation score (Mean) ([5]; 5 min): 4
MLC phosphorylation and actin stress fiber formation, evaluation score (Mean) ([6]; 1 min): 4
MLC phosphorylation and actin stress fiber formation, evaluation score (Mean) ([6]; 5 min): 4
GTP-bound RhoA, relative values compared to unstimulated control (Mean) (GTP-bound RhoA [7]; 1 min): 4.3
GTP-bound RhoA, relative values compared to unstimulated control (Mean) (GTP-bound RhoA [7]; 5 min): 3.2

CCCCCCCCCCCCCC(=O)O[C@@H]1[C@@H](C)[C@@]2(O)[C@@H](C=C(CO)C[C@]3(O)C(=O)C(C)=C[C@@H]23)[C@@H]2C(C)(C)[C@]12OC(C)=O [PMA, reference compound]
GEF-activity, relative values compared to unstimulated control (Mean) (GEF [8]; 1 min): 2.5
GEF-activity, relative values compared to unstimulated control (Mean) (GEF [8]; 5 min): 1.8
increase of GEF-activity (GEF [8]; CaCo-2 cells, 1 min PMA-stimulus): 2.5 fold
MLC phosphorylation and actin stress fiber formation, evaluation score (Mean) ([9]; 1 min): 3
MLC phosphorylation and actin stress fiber formation, evaluation score (Mean) ([9]; 5 min): 3
GTP-bound RhoA, relative values compared to unstimulated control (Mean) (GTP-bound RhoA [10]; 1 min): 2.3
GTP-bound RhoA, relative values compared to unstimulated control (Mean) (GTP-bound RhoA [10]; 5 min): 2.0
increase of RhoA-activity (GTP-bound RhoA [10]; after 5 mm of stimulation): 2 fold
increase of RhoA-activity (GTP-bound RhoA [10]; after 1 min): 2.3 fold
